# From patent US20260207632A1, “C[…] THERAPY” (KINGDOM THERAPEUTICS LIMITED, priority 2022, published 2026)
# Columns and labels:
# rat VPA model of autism [1] = test: Open field behaviour (P31-32): locomotor activity, centre crossing, circling, self-grooming in VPA rat model; format: in vivo; parameters: key to open field (spontaneous LMA on day 1) / open field (habituation LMA on day 2) / centre crossing / centre time / Circling / Grooming: +: improvement; Ø: no change
# Experimental: (§1) In the first study, a sub-chronic 8-day dosing schedule was employed with the test compound CBD administered alone (10, 30 and 60 mg/kg, p.o. VPA/CBD; dose volume 5 ml/kg). Control animals were administered sterile saline (0.9% w/v, i.p.) in utero and the vehicle control (ethanol: Kolliphor HS-15:0.9% saline (1:1:18, v/v/v) p.o. VEH/VEH). The test compound and vehicle control were administered to the animals once daily for 7 days prior to, and once again on each day of behavioural assessment, 60 minutes prior to test which consisted of a battery of behavioural paradigms: P30 social play and bottle brush test, P31-32 open field exploratory behaviour. A reference positive control, the atypical antipsychotic risperidone (0.125 mg/kg, i.p., once per day for 8 days prior to and for duration of behavioural testing), was included in study one for comparison. Subsequent to behavioural analysis the effect of CBD on gastrointestinal permeability was evaluated four hours following oral administration of fluorescein isothiocyanate-labelled dextran measured in plasma on postnatal day 33. On postnatal day 34, 60 minutes post a final treatment with the test agents, animals were humanely euthanised and samples collected to evaluate inflammatory biomarkers, gastrointestinal function and histology. 5 In the second study, the sub-optimal dose of CBD (30 mg/kg, p.o.) was evaluated in combination with administration of THC at increasing concentration (0.75, 1.5 and 3 mg/kg, p.o. VPA/CBD+THC). Comparison was made to CBD administered alone at the sub-optimal and effective doses (30 and 60 mg/kg, p.o.) and to vehicle controls as per study one. Behavioural and gastrointestinal readouts were examined as per study one with terminal samples collected on the final day of the experiment.
# Following eight days treatment with the test compound animals were scored for locomotor activity and exploratory behaviour in two 10-minute trials within an open field arena over two days, a protocol widely used at Berand and allows to distinguish between day 1 spontaneous locomotor activity and day 2 locomotor activity following habituation (pre-exposure to the arena on day 1). Each day the animals were placed into a […] black Perspex box with 30 cm side walls, under low light and monitored via remote video capture for spontaneous activity. Linked to Ethovision XT image analysis software these videos were analysed for total distance moved and number and duration of centre zone crossings as an indication of hyperactivity and anxiety-like behaviour. Manual scoring of the videos was conducted (blinded to treatment group) to determine frequency of circling behaviour (number of 360 degree turns) and duration of self-grooming (n=8).
# rat VPA model of autism [2] = test: Muscle thickness in rat colonic tissue (H&E histology), VPA rat model; format: in vivo; settings: for Average Muscle Thickness: VPA in utero
# Experimental: Five animals were chosen at random from each of the agreed treatment groups. Colon tissue was collected after euthanasia, weighted, flushed using cold sterile saline, and divided into three sections. One distal sample (approx. 1 cm×1 cm) was employed for intestinal myeloperoxidase (MPO) activity as described below by Berand Ltd. This sample was weighed and stored at −80° C. until use. A second proximal colon sample (approx. 1 cm×5 cm) was prepared for histological analysis by collection using the Swiss roll technique, placed into a cassette for paraffin embedding and preservation in 10% formalin solution for 24 hours. They were then transferred into 70% ethanol solution until paraffin embedded. These samples were shipped in 70% ethanol solution to Transpharmation Ltd at trinity College Dublin, Ireland for further processing. Haematoxylin & eosin staining was performed on the tissue before imaging. Five images were taken from each animal at 1.25× magnification. Using ImageJ the thickness of the muscle layer was measured at 5 locations throughout the section. A third medial section of colon (approx. 1 cm×2.5 cm) was frozen in liquid nitrogen for the analysis of cytokine expression and was shipped at minus 80° C. to Transpharmation Ltd at Trinity College Dublin, Ireland.
# Staining was performed using the Haematoxylin and Eosin kit from Vector Laboratories (Cat. No. H-3502). Sections were deparaffinized and rehydrated by washing in xylene (3×5 min), 100% ethanol (1 min), 96% ethanol (1 min) and distilled water (2 min). Each section was fully covered in haematoxylin stain and left for 5 min before being washed twice in distilled water for 15 s. […]
# Sections were imaged using an Olympus BX51 microscope at a magnification of 1.25×. Images were then analysed using ImageJ software. Thickness of muscle were measured from luminal surface to muscularis mucosa and from luminal surface to external muscle layer. […]
# For the histological analysis of colonic tissue, statistical analysis was performed using GraphPad Prism 9. Normality was assessed using the Shapiro-Wilk test. […]
# [3] = tested on: rodent in utero VPA model of autism; test: Behavioural changes in rodent in utero VPA model of autism (overall conclusion); format: in vivo, rat; settings: sub-chronic treatment with CBD alone, p.o.
# Experimental: as §1, with “A reference positive control, the atypical antipsychotic risperidone (0.125 mg/kg, i.p., once per day for 8 days prior to and for duration of behavioural testing), was included in study one for comparison.” left out, “On postnatal day 34, 60 minutes post a final treatment with the test agents, animals were humanely euthanised and samples collected to evaluate inflammatory biomarkers, gastrointestinal function and histology.” left out, “Comparison was made to CBD administered alone at the sub-optimal and effective doses (30 and 60 mg/kg, p.o.) and to vehicle controls as per study one.” left out
# Two experimental studies carried out 1). that established the effective dose of CBD and 2). determined the additive effect of CBD in combination with THC at increasing ratios. […]
# [4] = cohort one, risperidone 0.125 mg/kg i.p.
# [5] = study one, risperidone 0.125 mg/kg i.p.
# [6] = cohort two, CBD 30 mg/kg, THC 0 mg/kg p.o.
# [7] = cohort two, CBD 60 mg/kg, THC 0 mg/kg p.o.
# [8] = study one, CBD 60 mg/kg, vs VPA/VEH
smiles,measurement,setting,value
"Cc1nc2n(c(=O)c1CCN1CCC(c3noc4cc(F)ccc34)CC1)CCCC2 [Risperidone, risperidone]",Circling,rat VPA model of autism [1]; [4],Ø
same,Grooming,rat VPA model of autism [1]; [4],Ø
same,centre crossing,rat VPA model of autism [1]; [4],Ø
same,centre time,rat VPA model of autism [1]; [4],Ø
same,open field (habituation LMA on day 2),rat VPA model of autism [1]; [4],+
same,open field (spontaneous LMA on day 1),rat VPA model of autism [1]; [4],+
same,"circling and self-grooming, day one or two",rat VPA model of autism [1]; [5],did not reach significance
same,"increased locomotor activity, day two",rat VPA model of autism [1]; [5],significantly reduced
same,"locomotor hyperactivity, day one",rat VPA model of autism [1]; [5],significantly reduced
"C=C(C)[C@@H]1CCC(C)=C[C@H]1c1c(O)cc(CCCCC)cc1O [CBD, cannabidiol]",Circling,"rat VPA model of autism [1]; cohort one, CBD 10 mg/kg p.o.",Ø
same,Grooming,"rat VPA model of autism [1]; cohort one, CBD 10 mg/kg p.o.",Ø
same,centre crossing,"rat VPA model of autism [1]; cohort one, CBD 10 mg/kg p.o.",Ø
same,centre time,"rat VPA model of autism [1]; cohort one, CBD 10 mg/kg p.o.",Ø
same,open field (habituation LMA on day 2),"rat VPA model of autism [1]; cohort one, CBD 10 mg/kg p.o.",Ø
same,open field (spontaneous LMA on day 1),"rat VPA model of autism [1]; cohort one, CBD 10 mg/kg p.o.",Ø
same,Circling,"rat VPA model of autism [1]; cohort one, CBD 30 mg/kg p.o.",Ø
same,Grooming,"rat VPA model of autism [1]; cohort one, CBD 30 mg/kg p.o.",Ø
same,centre crossing,"rat VPA model of autism [1]; cohort one, CBD 30 mg/kg p.o.",Ø
same,centre time,"rat VPA model of autism [1]; cohort one, CBD 30 mg/kg p.o.",Ø
same,open field (habituation LMA on day 2),"rat VPA model of autism [1]; cohort one, CBD 30 mg/kg p.o.",Ø
same,open field (spontaneous LMA on day 1),"rat VPA model of autism [1]; cohort one, CBD 30 mg/kg p.o.",Ø
same,Circling,"rat VPA model of autism [1]; cohort one, CBD 60 mg/kg p.o.",+
same,Grooming,"rat VPA model of autism [1]; cohort one, CBD 60 mg/kg p.o.",+
same,centre crossing,"rat VPA model of autism [1]; cohort one, CBD 60 mg/kg p.o.",Ø
same,centre time,"rat VPA model of autism [1]; cohort one, CBD 60 mg/kg p.o.",Ø
same,open field (habituation LMA on day 2),"rat VPA model of autism [1]; cohort one, CBD 60 mg/kg p.o.",+
same,open field (spontaneous LMA on day 1),"rat VPA model of autism [1]; cohort one, CBD 60 mg/kg p.o.",+
same,Circling,rat VPA model of autism [1]; [6],+
same,Grooming,rat VPA model of autism [1]; [6],Ø
same,centre crossing,rat VPA model of autism [1]; [6],Ø
same,centre time,rat VPA model of autism [1]; [6],Ø
same,open field (habituation LMA on day 2),rat VPA model of autism [1]; [6],Ø
same,open field (spontaneous LMA on day 1),rat VPA model of autism [1]; [6],Ø
same,Circling,rat VPA model of autism [1]; [7],+
same,Grooming,rat VPA model of autism [1]; [7],+
same,centre crossing,rat VPA model of autism [1]; [7],+
same,centre time,rat VPA model of autism [1]; [7],+
same,open field (habituation LMA on day 2),rat VPA model of autism [1]; [7],+
same,open field (spontaneous LMA on day 1),rat VPA model of autism [1]; [7],+
same,"increase in circling behaviour, day 2","rat VPA model of autism [1]; study one, CBD 60 mg/kg",significantly attenuated
same,"increase in self grooming, day 2","rat VPA model of autism [1]; study one, CBD 60 mg/kg",reversed
same,"increase in locomotor activity (distance travelled), day one",rat VPA model of autism [1]; [8],significantly prevented
same,"increase in locomotor activity (distance travelled), day two",rat VPA model of autism [1]; [8],significantly prevented
same,"increase in circling and grooming behaviour, day one","rat VPA model of autism [1]; study one, CBD (10, 30 and 60 mg/kg)",without effect
same,"increase in circling behaviour, day 2","rat VPA model of autism [1]; study two, CBD 30 mg/kg",without effect
same,"increase in circling, day one","rat VPA model of autism [1]; study two, CBD 30 mg/kg",significantly prevented
same,"increase in locomotor activity (distance travelled), day one","rat VPA model of autism [1]; study two, CBD 30 mg/kg",without effect
same,"increase in locomotor activity (distance travelled), day two","rat VPA model of autism [1]; study two, CBD 30 mg/kg",without effect
same,"increase in self grooming, day 2","rat VPA model of autism [1]; study two, CBD 30 mg/kg",without effect
same,"increase in circling behaviour, day 2","rat VPA model of autism [1]; study two, CBD 60 mg/kg",significantly attenuated
same,"increase in circling, day one","rat VPA model of autism [1]; study two, CBD 60 mg/kg",significantly prevented
same,"increase in locomotor activity (distance travelled), day one","rat VPA model of autism [1]; study two, CBD 60 mg/kg",significantly prevented
same,"increase in locomotor activity (distance travelled), day two","rat VPA model of autism [1]; study two, CBD 60 mg/kg",significantly prevented
same,"increase in self grooming, day 2","rat VPA model of autism [1]; study two, CBD 60 mg/kg",reversed
same,Average Muscle Thickness,rat VPA model of autism [2]; CBD 30 mg/kg,220.4 μm
same,Average Muscle Thickness,rat VPA model of autism [2]; CBD 60 mg/kg,207.2 μm
same,thinning of colonic muscle,"rat VPA model of autism [2]; VPA rats, treatment with CBD (30, 60 mg/kg)",attenuated
same,minimum effective dose,[3],60 mg/kg
